Earlier results on 2 molecules are cited in patent publication EP2061448B1, “SUSTAINED RELEASE FORMULATION OF NALTREXONE” (Nalpropion Pharmaceuticals, Inc., priority 2006, dated 2007).

Like-named read-outs stand apart in the source and are kept apart here.

In data set [1] the test system is pharmacologic effects of 25 mg of intravenously administered heroin.
The conditions of data set [2]: oral administration, immediate release form.
The conditions of data set [3]: initial 25 mg dose followed by 50 mg daily for 10 weeks.

Regarding naltrexone hydrochloride, the “period of block of the pharmacologic effects of heroin” value in data set [1] (50 mg of naltrexone hydrochloride, 25 mg of intravenously administered heroin) is given as no more than 24 hours. The duration of blockade was 48 h in data set [1] (doubling the dose of naltrexone hydrochloride) and “about 72 hours” in data set [1] (tripling the dose of naltrexone hydrochloride).

Take `O=C1CC[C@@]2(O)[C@H]3Cc4ccc(O)c5c4[C@@]2(CCN3CC2CC2)[C@H]1O5` [naltrexone, 17-(cyclopropylmethyl)-4,5α-epoxy-3,14-dihydroxymorphinan-6-one]: the Tmax entry in data set [2] is given as “approximately 1 hour”. Besides, the “Moderate to severe nausea, patients” value in data set [3] is on record as 15%.
